Structures can show the parent of a compound that is named as a salt.

Data on 1 compound can be found in US7713960B2, “Inhibition of the Raf/Mek/P-Erk pathway for treating cancer” (University of South Florida, priority 2005, dated 2010).

Series [1] relates to ACHN cells. Nature of the series: Apoptosis assay (Cell Death Detection ELISA), ACHN. In kind it is cell-based, human. The note with it: 48 hours. How it is done: Apoptosis Assay—Apoptosis was analyzed using the Cell Death Detection ELISA (Roche, Indianapolis, Ind.) measuring cytoplasmic histone-associated mono- and oligonucleosome DNA fragments. Procedures were carried out according to the manufacturers protocol. Briefly, 1×10^5 cells were plated in 60 mm dishes and treated with various doses of ARA-211 or vehicle for 48 hours. Cells were lysed with the provided lysis buffer and lysate was incubated on the ELISA plate for 1 hour to capture the histone associated DNA indicative of apoptotic cells. Anti-DNA peroxidase conjugated antibody was added to detect the cleaved DNA and the microplate was washed and developed with ABTS substrate which was quantitated by microplate reader at 405 nm.
Background: ELISA stands for enzyme-linked immunosorbent assay.

In series [2] the test system is SNB-19 cells. Briefly: Anchorage-dependent growth (MTT assay), SNB-19. In kind it is cell-based, human. The note with it: n = 3. As to the method: (§1) MTT Assay—2000 cells per well were plated into 96 well tissue culture plates, and the cells were allowed to attach overnight at 37° C. with 10% CO2. Cells were then treated with increasing concentrations of ARA-211, or vehicle (DMSO) and incubated for four days. At that time treatment medium was removed and replaced with 100 μl of lmg/ml MTT (Sigma-Aldrich, St. Louis, Mo.) in media and incubated at 37° C., 10% CO2 for 3 hours. After 3 hours the MTT media was removed and replaced with 100 μl/well of DMSO, rocked at room temperature for 5 minutes, then absorbance read at 540 nm on a micro-plate reader.
(In general: Tetrazolium assays rely on reduction of a dye to a coloured formazan, in cell work by metabolically active cells.)

For series [3], the system named is SNB-19 cells. Nature of the series: Nude mouse xenograft model, SNB-19 (s.c.). The note with it: SNB-19 xenograft; i.p. 75 mpk/day. Type of series: in vivo, nude mice. An excerpt: (§2) Anti-tumor activity in nude mouse xenograft model—Female athymic nude (nu/nu) mice, 5-6 weeks old, were purchased from Charles River (Wilmington, Mass.) and allowed to acclimate in the animal facility for one week. After harvesting, A-549, SNB-19, ACHN, and HCT-116 cells were, resuspended in sterile PBS, and injected s.c. into the right and left flanks (10×10^6 cells per flank) of the mice as previously described (Sun et al., 2005). For MDA-MB-231, cells were harvested and resuspended in PBS (10×10^6 cells per 50 μl) and an equal volume of Matrigel (BD Biosciences, San Jose, Calif.). 100 μl of MDA-MB-231 cells in PBS/Matrigel were injected s.c. into the mammary fat pads between the 2nd and 3rd nipples on each side of the mice. Once the tumors reached approximately 200-300 mm^3 the mice were randomized and treated i.p. with 0.1 ml vehicle (PBS) or ARA-211. Each treatment group consisted of five mice (2 tumors per mouse, a total of 10 tumors). The tumor volumes were determined by measuring the length (l) and width (w) and calculating the volume (V=w^2l/2). Statistical significance between the control and treated animals was determined using a student's t test.

For series [4], the system named is SNB-19 cells. Nature of the series: Anchorage-independent growth (soft agar assay), SNB-19. In kind it is cell-based, human. As to the method:
Soft Agar Assay—Anchorage independent growth assays were performed as previously described (Lerner et al., 1997). Briefly, agar was diluted to 0.3% in propagation media containing 20,000 cells and either vehicle or ARA-211 and 1 ml of cell/agar mixture plated on top of 2 ml of a 0.6% layer of agar in medium alone. Cells were grown for three to four weeks at 37° C., 10% Co2 and were fed weekly with 100 μl per well of media/treatment. Quantification of colonies was done using a GS-700 scanning densitometer.

The test system of series [5] is A-549 cells. Nature of the series: Total cellular cAMP measurement, A-549. In kind it is cell-based, human. How it is done: (§3) Total cellular cAMP measurement—The measurement of total cellular cAMP was done using a cAMP Biotrak ™ Enzymeimmunoassay (EIA) system (Amersham Biosciences, Piscataway, N.J.) according to the manufacturer's protocol. Briefly, 2000 cells were plated into each well of a 96 well plate. The next day cells were treated with increasing concentrations of ARA-211 or with vehicle for one hour. Alternatively, MDA-MB-231 cells were pre-treated with antagonists to the α1 (Prazosin, Sigma), α2 (Yohimbine, Sigma), β1 (Metoprolol, Sigma), and β2 (ICI 118.551, Sigma) adrenergic receptors at 100 nM for 15 minutes followed by treatment with 10 μM ARA-211 for 45 minutes. Cells were then lysed directly in the wells using the supplied lysis buffer. The lysate was transferred to a 96-well cAMP ELISA plate, and results were quantified using a Wallac Victor 2 plate reader.

In series [6] the test system is HCT-116 cells. Nature of the series: Total cellular cAMP measurement, HCT-116. In kind it is cell-based, human. How it is done:
as §3

Series [7] relates to ACHN cells. Briefly: Anchorage-dependent growth (MTT assay), ACHN. In kind it is cell-based, human. As to the method:
as §1

Series [8] relates to A-549 cells. Briefly: Nude mouse xenograft model, A-549 (s.c.). Type of series: in vivo, nude mice. The note with it: A-549 xenograft; i.p. 75 mpk/day.
Text: as §2

The target in another series is T1, Mek-1 (Homo sapiens, UniProt Q02750).
T1 construct: c-Raf-1 and Mek-1, immunoprecipitated from MDA-MB-231 cells; endogenous in cells; host or cells: MDA-MB-231
Nature of the series: In vitro kinase assay, Mek-1 immunoprecipitated from MDA-MB-231 cells. Type of series: biochemical. The note with it: immunoprecipitated kinase treated in vitro, 10 μM. How it is done:
In Vitro Kinase Assays—MDA-MB-231 cells (2×10^6) were lysed for 30 minutes at 4° C. in RIPA-150 buffer (10 mM Tris pH 7.5, 150 mM NaCl, 10% glycerol, 5 mM EDTA, 1% Triton X-100, 0.1% SDS, 100 μM sodium orthovanadate, 1 μM aprotinin, 10 μM leupeptin, 10 μM antipain). Cell debris was pelleted at 13000 rpm for 15 minutes at 4° C. and the lysate was rocked overnight with 10 μg of either c-Raf or MEK antibodies (Santa Cruz Biotechnologies, Santa Cruz, Calif.). 25 μl of protein A/G PLUS agarose (Santa Cruz Biotechnology) was then added and rocked for 4 hours at 4° C. Samples were spun at 2000 rpm for 5 minutes to collect the agarose beads, which were then washed four times with lysis buffer. On the final wash each pellet was divided into 5. […]

In series [9] the test system is HCT-116 cells. Nature of the series: Nude mouse xenograft model, HCT-116 (s.c.). In kind it is in vivo, nude mice. The note with it: HCT-116 xenograft; i.p. 75 mpk/day.
Text: as §2

T1 sequence (Q02750 whole entry): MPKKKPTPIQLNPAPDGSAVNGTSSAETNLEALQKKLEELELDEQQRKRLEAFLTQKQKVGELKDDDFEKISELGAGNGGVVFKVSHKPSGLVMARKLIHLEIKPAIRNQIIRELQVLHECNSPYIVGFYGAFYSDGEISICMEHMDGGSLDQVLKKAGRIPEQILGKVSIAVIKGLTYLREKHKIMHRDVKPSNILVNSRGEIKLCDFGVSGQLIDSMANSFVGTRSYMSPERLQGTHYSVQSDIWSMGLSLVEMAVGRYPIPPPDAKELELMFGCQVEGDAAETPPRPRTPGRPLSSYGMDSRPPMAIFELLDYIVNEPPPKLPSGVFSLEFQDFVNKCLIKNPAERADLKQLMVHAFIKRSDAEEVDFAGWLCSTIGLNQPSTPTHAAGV

For `CC(C)(C)NCC(O)c1ccc(O)c(CO)n1` (stereo not shown) [ARA-211, 2-hydroxymethyl-3-hydroxy-6-(1-hydroxy-2-tert-butylaminoethyl) pyridine, dihydrochloride], the “Apoptosis (% Induction)” value with ACHN cells [1] amounted to 11.4 ± 1.9%. The “Anchorage Dependent Growth (% Inhibition)” value in the series with SNB-19 cells [2] is on record as 0 (n = 3) %; in the series on ACHN cells [7], 62 ± 12.7%. Moreover, the growth of tumors entry in the series on SNB-19 cells [3], with A-549 cells [8] and in the series on HCT-116 cells [9] was “is not affected” throughout. In addition, in the series with SNB-19 cells [4], the “Anchorage Independent Growth (% Inhibition)” value was found to be 5.1 ± 5.0%. For the same compound, the “cAMP (Fold Induction)” value in the series on A-549 cells [5] is 1.3 ± 0.3 Fold; with HCT-116 cells [6], 1.1 ± 0.1 Fold. Further, the “in vitro Mek-1 kinase activity” value on Mek-1 is reported as “did not inhibit”.
